Measurements as given in US20240218022A1, “ANTI-VISTA MACROCYCLIC PEPTIDES AND COMPOSITIONS” (BRISTOL-MYERS SQUIBB COMPANY, priority 2022, published 2024).
pIC50: −log10 of the molar value. Read-outs that look alike come from different tables or passages of the source. Starred links: 1 amine or outer side, 2 acyl side, 3 side chain; linkers in the order of their positions; H or OH if unused. Positions of bridges follow the written chain, without caps; N, C: chain ends. Non-standard residues stand in square brackets, D forms with d. Residues, ends and D or L forms follow the SMILES beside them. γGlu = O=C(O)[C@H](CCC(=O)[*:2])N[*:1]; 2Nal = N[C@@H](Cc1ccc2ccccc2c1)C(=O)O; βAsp = O=C(O)[C@H](CC(=O)[*:2])N[*:1]; Cit = NC(=O)NCCC[C@H](N)C(=O)O; Ahp(2) = CCCCC[C@H](N)C(=O)O; NMeNle = CCCC[C@H](NC)C(=O)O; Tle = CC(C)(C)[C@H](N)C(=O)O; NHexGly = CCCCCCNCC(=O)O; NMeA = CN[C@@H](C)C(=O)O; Nle = CCCC[C@H](N)C(=O)O; Orn = NCCC[C@H](N)C(=O)O; Aun = NCCCCCCCCCCC(=O)O; Nva = CCC[C@H](N)C(=O)O; AEEA = NCCOCCOCC(=O)O

Biological target: T1, mouse VISTA (mVISTA) (Mus musculus, UniProt Q9D659)
T1 construct: expressed in transfected cells; host or cells: Human embryonic kidney 293T cells
T1 sequence (Q9D659 33-308): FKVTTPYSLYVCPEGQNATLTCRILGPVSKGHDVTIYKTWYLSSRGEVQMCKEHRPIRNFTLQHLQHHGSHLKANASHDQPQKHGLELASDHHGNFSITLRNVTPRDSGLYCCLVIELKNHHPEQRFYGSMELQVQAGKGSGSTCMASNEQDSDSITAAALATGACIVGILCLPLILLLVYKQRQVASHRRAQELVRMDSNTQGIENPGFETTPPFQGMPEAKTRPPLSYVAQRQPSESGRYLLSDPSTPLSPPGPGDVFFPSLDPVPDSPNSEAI
Test: Cell-Based Binding High-Content Assay For mVISTA (HC CBA mVISTA)
In short: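 This high-content binding assay uses HEK293T cells expressing murine VISTA, measuring displacement of 2 nM biotinylated peptide by fluorescent streptavidin imaging. IC50 values come from four-parameter logistic fitting.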

[1] = 293T cells expressing mouse VISTA, competition with biotinylated peptide (2 nM), read-out: HC CBA mVISTA IC50

SMILES	pIC50 (read-out: HC CBA mVISTA IC50)	pIC50 [1]	further results
CCCCCCN1CC(=O)N[C@@H](Cc2ccc(O)cc2)C(=O)N[C@@H](CC(C)C)C(=O)NCC(=O)N[C@@H](CCCNC(=N)N)C(=O)N[C@@H](Cc2ccc(O)cc2)C(=O)N[C@@H](CCCCC)C(=O)N2CCC[C@H]2C(=O)N[C@@H](C(C)C)C(=O)N[C@@H](CC(=O)O)C(=O)N[C@H](C(=O)NCC(N)=O)CSCC(=O)N[C@@H](Cc2ccccc2)C(=O)N[C@@H](Cc2c[nH]c3ccccc23)C(=O)N[C@@H](CC(=O)O)C1=O [Example 1416] ({CH2CO}-FWD[NHexGly]YLGRY[Ahp(2)]PVDCG-NH2; thioether N-14)	7.29	–	–
CCCCCCN1CC(=O)N[C@@H](Cc2ccc(O)cc2)C(=O)N[C@@H](C(C)C)C(=O)NCC(=O)N[C@@H](CCCNC(=N)N)C(=O)N[C@@H](CC(C)C)C(=O)N[C@@H](CCCCC)C(=O)N2CCC[C@H]2C(=O)N[C@@H](C(C)C)C(=O)N[C@@H](CC(=O)O)C(=O)N[C@H](C(=O)N[C@@H](CO)C(=O)N[C@@H](CCCN)C(=O)N[C@@H](CC(N)=O)C(=O)O)CSCC(=O)N[C@@H](Cc2ccc3ccccc3c2)C(=O)N[C@@H](Cc2ccc(O)cc2)C(=O)N[C@@H](CC(=O)O)C1=O [Example 1159] ({CH2CO}-[2Nal]YD[NHexGly]YVGRL[Ahp(2)]PVDCS[Orn]N-OH; thioether N-14)	–	7.76	–
CCCCCCN1CC(=O)N[C@@H](Cc2ccc(O)cc2)C(=O)N[C@@H](CCCC)C(=O)N[C@@H](CC(=O)O)C(=O)N[C@@H](CCCNC(=N)N)C(=O)N(C)[C@@H](CCCC)C(=O)N[C@@H](CCCCC)C(=O)N2CCC[C@H]2C(=O)N[C@@H](C(C)(C)C)C(=O)N[C@@H](CC(=O)O)C(=O)N[C@H](C(=O)N[C@@H](CC(=O)O)C(N)=O)CSCC(=O)N[C@@H](Cc2ccccc2)C(=O)N[C@@H](Cc2c[nH]c3ccccc23)C(=O)N[C@@H](CC(=O)O)C1=O [Example 1377] ({CH2CO}-FWD[NHexGly]Y[Nle]DR[NMeNle][Ahp(2)]P[Tle]DCD-NH2; thioether N-14)	7.65	–	–
CCCCCCN1CC(=O)N[C@@H](Cc2ccc(O)cc2)C(=O)N[C@@H](C)C(=O)N[C@@H](CC(N)=O)C(=O)N[C@@H](CCCNC(=N)N)C(=O)N(C)[C@@H](CCCC)C(=O)N[C@@H](CCCCC)C(=O)N2CCC[C@H]2C(=O)N[C@@H](C(C)(C)C)C(=O)N[C@@H](CC(=O)O)C(=O)N[C@H](C(=O)N[C@@H](CC(=O)NCCOCCOCC(=O)N[C@@H](CC(=O)O)C(=O)NCCOCCOCC(=O)NCCCCCCCCCCC(=O)O)C(=O)O)CSCC(=O)N[C@@H](Cc2ccccc2)C(=O)N[C@@H](Cc2c[nH]c3ccccc23)C(=O)N[C@@H](CC(=O)O)C1=O [compound 2094] ({CH2CO}-FWD[NHexGly]YANR[NMeNle][Ahp(2)]P[Tle]DC[βAsp][AEEA]D[AEEA][Aun]-OH; thioether N-14)	–	–	pIC50 (cell-based binding high-content assay, mVISTA, read-out: HC CBA miPrISTA IC50): 7.46
CCCCCCN1CC(=O)N[C@@H](Cc2ccc(O)cc2)C(=O)N[C@@H](CCC)C(=O)N[C@@H](CC(N)=O)C(=O)N[C@@H](CCCNC(=N)N)C(=O)N[C@@H](CC(C)C)C(=O)N[C@@H](CCCCC)C(=O)N2CCC[C@H]2C(=O)N[C@@H](C(C)C)C(=O)N[C@@H](CO)C(=O)N[C@H](C(=O)NCC(=O)O)CSCC(=O)N[C@@H](Cc2ccccc2)C(=O)N[C@@H](Cc2ccc(O)cc2)C(=O)N[C@@H](CC(=O)O)C1=O [Example 1047] ({CH2CO}-FYD[NHexGly]Y[Nva]NRL[Ahp(2)]PVSCG-OH; thioether N-14)	–	7.49	–
CCCCCCN1CC(=O)N[C@@H](Cc2ccc(O)cc2)C(=O)N[C@@H](CCCC)C(=O)N[C@@H](CC(N)=O)C(=O)N[C@@H](CCCNC(N)=O)C(=O)N(C)[C@@H](CCCC)C(=O)N[C@@H](CCCCC)C(=O)N(C)[C@@H](C)C(=O)N[C@@H](C(C)C)C(=O)N[C@@H](CO)C(=O)N[C@H](C(=O)NCC(N)=O)CSCC(=O)N[C@@H](Cc2ccccc2)C(=O)N[C@@H](Cc2c[nH]c3ccccc23)C(=O)N[C@@H](CC(=O)O)C1=O [compound 1144] ({CH2CO}-FWD[NHexGly]Y[Nle]N[Cit][NMeNle][Ahp(2)][NMeA]VSCG-NH2; thioether N-14)	7.80	–	–
CCCCCCN1CC(=O)N[C@@H](Cc2ccc(O)cc2)C(=O)N[C@@H](CCCCC)C(=O)N[C@@H](CC(N)=O)C(=O)N[C@@H](CCCN)C(=O)N(C)[C@@H](CCCC)C(=O)N[C@@H](CCCCC)C(=O)N2CCC[C@H]2C(=O)N[C@@H](C(C)(C)C)C(=O)N[C@@H](CO)C(=O)N[C@H](C(=O)N[C@@H](CCC(=O)NCCCCCCCCCCC(=O)O)C(=O)O)CSCC(=O)N[C@@H](Cc2ccccc2)C(=O)N[C@@H](Cc2c[nH]c3ccccc23)C(=O)N[C@@H](CC(=O)O)C1=O [Example 2144] ({CH2CO}-FWD[NHexGly]Y[Ahp(2)]N[Orn][NMeNle][Ahp(2)]P[Tle]SC[γGlu][Aun]-OH; thioether N-14)	7.41	–	–
CCCCCCN1CC(=O)N[C@@H](Cc2ccc(O)cc2)C(=O)N[C@@H](CCCCC)C(=O)N[C@@H](CC(=O)O)C(=O)N[C@@H](CCCNC(=N)N)C(=O)N(C)[C@@H](CCCC)C(=O)N[C@@H](CCCCC)C(=O)N2CCC[C@H]2C(=O)N[C@@H](C(C)C)C(=O)N[C@@H](CC(=O)O)C(=O)N[C@H](C(=O)N[C@@H](CC(=O)O)C(N)=O)CSCC(=O)N[C@@H](Cc2ccccc2)C(=O)N[C@@H](Cc2ccc(O)cc2)C(=O)N[C@@H](CC(=O)O)C1=O [Example 1074] ({CH2CO}-FYD[NHexGly]Y[Ahp(2)]DR[NMeNle][Ahp(2)]PVDCD-NH2; thioether N-14)	–	–	pIC50 (293T cells expressing mouse VISTA, competition with biotinylated peptide (2 nM), read-out: CBA mVISTA IC50): 8.01
CCCCCCN1CC(=O)N[C@@H](Cc2ccc(O)cc2)C(=O)N[C@@H](CCCCN)C(=O)NCC(=O)N[C@@H](CCCNC(=N)N)C(=O)N[C@@H](CC(C)C)C(=O)N[C@@H](CCCCC)C(=O)N2CCC[C@H]2C(=O)N[C@@H](C(C)C)C(=O)N[C@@H](CO)C(=O)N[C@H](C(=O)NCC(=O)O)CSCC(=O)N[C@@H](Cc2ccccc2)C(=O)N[C@@H](Cc2ccc(O)cc2)C(=O)N[C@@H](CC(=O)O)C1=O [Example 1053] ({CH2CO}-FYD[NHexGly]YKGRL[Ahp(2)]PVSCG-OH; thioether N-14)	–	7.68	–
CCCCCCN1CC(=O)N[C@@H](Cc2ccc(O)cc2)C(=O)N[C@@H](CCCC)C(=O)NCC(=O)N[C@@H](CCCNC(=N)N)C(=O)N[C@@H](CC(C)C)C(=O)N[C@@H](CCCCC)C(=O)N2CCC[C@H]2C(=O)N[C@@H](C(C)C)C(=O)N[C@@H](CC(=O)O)C(=O)N[C@H](C(=O)NCC(N)=O)CSCC(=O)N[C@@H](Cc2ccc3ccccc3c2)C(=O)N[C@@H](Cc2ccc(O)cc2)C(=O)N[C@@H](CC(=O)O)C1=O [Ex 1284] ({CH2CO}-[2Nal]YD[NHexGly]Y[Nle]GRL[Ahp(2)]PVDCG-NH2; thioether N-14)	–	–	pIC50 (cell-based binding high-content assay, mVISTA, the 16th table, read-out: HC CBA mVISTA IC50): 8.44
CCCCCCN1CC(=O)N[C@@H](Cc2ccc(O)cc2)C(=O)N[C@@H](CCCC)C(=O)N[C@@H](CC(N)=O)C(=O)N[C@@H](CCCN)C(=O)N(C)[C@@H](CCCC)C(=O)N[C@@H](CCCCC)C(=O)N2CCC[C@H]2C(=O)N[C@@H](C(C)(C)C)C(=O)N[C@@H](CO)C(=O)N[C@H](C(=O)N[C@@H](CC(=O)O)C(N)=O)CSCC(=O)N[C@@H](Cc2ccccc2)C(=O)N[C@@H](Cc2c[nH]c3ccccc23)C(=O)N[C@@H](CC(=O)O)C1=O [Example 1374] ({CH2CO}-FWD[NHexGly]Y[Nle]N[Orn][NMeNle][Ahp(2)]P[Tle]SCD-NH2; thioether N-14)	7.60	–	–
CCCCCCN1CC(=O)N[C@@H](Cc2ccc(O)cc2)C(=O)N[C@@H](CCCC)C(=O)NCC(=O)N[C@@H](CCCNC(=N)N)C(=O)N[C@@H](CC(C)C)C(=O)N[C@@H](CCCCC)C(=O)N2CCC[C@H]2C(=O)N[C@@H](C(C)C)C(=O)N[C@@H](Cc2ccc(O)cc2)C(=O)N[C@H](C(=O)NCC(=O)O)CSCC(=O)N[C@@H](Cc2ccccc2)C(=O)N[C@@H](Cc2ccc(O)cc2)C(=O)N[C@@H](CC(=O)O)C1=O [Example 1070] ({CH2CO}-FYD[NHexGly]Y[Nle]GRL[Ahp(2)]PVYCG-OH; thioether N-14)	–	7.74	–
CCCCCCN1CC(=O)N[C@@H](Cc2ccc(O)cc2)C(=O)N[C@@H](CCCC)C(=O)N[C@@H](CC(N)=O)C(=O)N[C@@H](CCCNC(=N)N)C(=O)N(C)[C@@H](CCCC)C(=O)N[C@@H](CCCCC)C(=O)N2CCC[C@H]2C(=O)N[C@@H](C(C)(C)C)C(=O)N[C@@H](CO)C(=O)N[C@H](C(=O)NCC(=O)NCCOCCOCC(=O)N[C@@H](CCC(=O)NCCOCCOCC(=O)NCCCCCCCCCCC(=O)O)C(=O)O)CSCC(=O)N[C@@H](Cc2ccc3ccccc3c2)C(=O)N[C@@H](Cc2ccc(O)cc2)C(=O)N[C@@H](CC(=O)O)C1=O [compound 2333] ({CH2CO}-[2Nal]YD[NHexGly]Y[Nle]NR[NMeNle][Ahp(2)]P[Tle]SCG[AEEA][γGlu][AEEA][Aun]-OH; thioether N-14)	–	–	pIC50 (cell-based binding high-content assay, read-out: HC CBA mVISTA IC50): 7.33
CCCCCCN1CC(=O)N[C@@H](Cc2ccc(O)cc2)C(=O)N[C@@H](CC(C)C)C(=O)NCC(=O)N[C@@H](CCCNC(=N)N)C(=O)N[C@@H](CC(C)C)C(=O)N[C@@H](CCCCC)C(=O)N2CCC[C@H]2C(=O)N[C@@H](C(C)C)C(=O)N[C@@H](CO)C(=O)N[C@H](C(=O)NCC(N)=O)CSCC(=O)N[C@@H](Cc2ccccc2)C(=O)N[C@@H](Cc2ccc(O)cc2)C(=O)N[C@@H](CC(=O)O)C1=O [Example 1049] ({CH2CO}-FYD[NHexGly]YLGRL[Ahp(2)]PVSCG-NH2; thioether N-14)	–	8.02	–
